According to patent US9487489B2, “Halogen-substituted pyrazole derivatives as pest-control agents” (BAYER CROPSCIENCE AKTIENGESELLSCHAFT, priority 2013, dated 2016):

Columns and labels:
[1] = test system: engorged adult female cattle ticks (Boophilus microplus); assay: Boophilus microplus injection test (BOOPMI Inj); assay type: in vivo; settings: application rate 20 μg/animal; injection into abdomen; assessed after 7 days
Protocol: C. Boophilus microplus-injection Test (BOOPMI Inj)
(§1) Solvent: dimethyl sulphoxide
To produce a suitable preparation of active compound, 10 mg of active compound are mixed with 0.5 ml of solvent, and the concentrate is diluted with solvent to the desired concentration.
1 μl of the active compound solution is injected into the abdomen of 5 engorged adult female cattle ticks (Boophilus microplus). The animals are transferred into dishes and kept in a climate-controlled room.
The activity is assessed after 7 days by laying of fertile eggs. Eggs whose fertility is not visible from the outside are stored in a climate-controlled cabinet until the larvae hatch after about 42 days. An efficacy of 100% means that none of the ticks has laid any fertile eggs; 0% means that all eggs are fertile.

[2] = test system: adult cat fleas (Ctenocephalides felis); assay: Ctenocephalides felis oral test (CTECFE); assay type: in vivo; settings: application rate 100 ppm in citrated cattle blood; after 2 days
Protocol: D. Ctenocephalides felis-oral Test (CTECFE)
as §1
To produce a suitable preparation of active compound, 10 mg of active compound are mixed with 0.5 ml of dimethyl sulphoxide. Dilution with citrated cattle blood gives the desired concentration.
About 20 unfed adult cat fleas (Ctenocephalides felis) are placed into a chamber which is closed at the top and bottom with gauze. A metal cylinder whose bottom end is closed with a parafilm is placed onto the chamber. The cylinder contains the blood/active ingredient preparation, which can be imbibed by the fleas through the parafilm membrane.
After 2 days, the kill in % is determined 100% means that all of the fleas have been killed; 0% means that none of the fleas have been killed.

[3] = test system: larvae of the mustard beetle (Phaedon cochleariae); assay: Phaedon cochleariae spray test (PHAECO); assay type: in vivo; settings: Chinese cabbage leaf discs, after 7 days
Summary of the method: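 Compound dissolved in acetone/dimethylformamide with alkylaryl polyglycol ether emulsifier, made up in water containing 1000 ppm emulsifier, then diluted to test concentrations and sprayed against mustard beetle larvae. Efficacy (% larvae killed) scored after 7 days.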

[4] = logP determination by HPLC on a reversed-phase column (C18), EEC Directive 79/831 Annex V.A8; assay type: physicochemical
Summary of the method: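 Retention on a C18 reversed-phase column (Zorbax Eclipse Plus, 1.8 micron) was used, eluting with acetonitrile/water, each containing formic acid. The gradient ran from 10% to 95% acetonitrile over 4.25 min, then held 1.25 min, at 55° C and 2.0 ml/min, with MS detection.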

[5] = test system: caterpillars of the armyworm (Spodoptera frugiperda); assay: Spodoptera frugiperda spray test (SPODFR); assay type: in vivo; settings: maize leaf discs, after 7 days
Protocol: I. Spodoptera frugiperda-spray Test (SPODFR)
(§2) Solvent: 78.0 parts by weight of acetone
(§3) • 1.5 parts by weight of dimethylformamide Emulsifier: alkylaryl polyglycol ether
(§4) To produce a suitable preparation of active compound, 1 part by weight of active compound is dissolved using the stated parts by weight of solvent and made up with water comprising an emulsifier concentration of 1000 ppm until the desired concentration is reached. To produce further test concentrations, the preparation is diluted with emulsifier-containing water.
Leaf discs of maize (Zea mays) are sprayed with an active compound preparation of the desired concentration and, after drying, populated with caterpillars of the armyworm (Spodoptera frugiperda).
After 7 days, the efficacy in % is determined. 100% means that all of the caterpillars have been killed; 0% means that none of the caterpillars have been killed.

[6] = test system: greenhouse red spider mite (Tetranychus urticae); assay: Tetranychus urticae spray test, OP-resistant (TETRUR); assay type: in vivo; settings: bean leaf discs, after 6 days
Protocol: J. Tetranychus urticae-spray Test, OP-Resistant (TETRUR)
as §2, §3, §4
Discs of bean leaves (Phaseolus vulgaris) which are infested by all stages of the greenhouse red spider mite (Tetranychus urticae) are sprayed with an active compound preparation of the desired concentration.
After 6 days, the efficacy in % is determined. 100% means that all of the spider mites have been killed; 0% means that none of the spider mites have been killed.

[7] = test system: L1 larvae of the Australian sheep blowfly (Lucilia cuprina); assay: Lucilia cuprina test (LUCICU); assay type: in vivo; settings: application rate 100 ppm; after 2 days
Protocol: E. Lucilia cuprina Test (LUCICU)
as §1
To produce a suitable preparation of active compound, 10 mg of active compound are mixed with 0.5 ml of dimethyl sulphoxide, and the concentrate is diluted with water to the desired concentration.
About 20 L1 larvae of the Australian sheep blowfly (Lucilia cuprina) are transferred into a test vessel containing minced horsemeat and the active compound preparation of the desired concentration.
After 2 days, the kill in % is determined 100% means that all of the larvae have been killed; 0% means that none of the larvae have been killed.

[8] = test system: adult cat fleas (Ctenocephalides felis); assay: Ctenocephalides felis in vitro contact test with adult cat fleas (T1); settings: after 48 h
Summary of the method: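 Test compound was dissolved in acetone p.a. (9 mg per 1 ml) and diluted as needed. 250 μl was spread evenly over the inner walls and floor of a 25 ml test tube by rotating on an orbital shaker for 2 h at 30 rpm. Once the solvent evaporated, 5-10 adult Ctenocephalides felis were added. Tubes were capped with a perforated plastic lid and kept horizontal at room temperature and ambient humidity.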

[9] = HPLC on reversed-phase column (C18), acetonitrile/water with formic acid, EEC Directive 79/831 Annex V.A8

Compound | efficacy (laying of fertile eggs) [1] | efficacy (kill in %) [2] | efficacy in % ([3]; application rate 100 g/ha) | logP [4, 9] | efficacy in % ([5]; application rate 100 g/ha) | efficacy in % ([6]; application rate 100 g/ha) | efficacy (kill in %) [7] | efficacy in % ([3]; application rate 500 g/ha) | efficacy in % ([5]; application rate 500 g/ha) | logP ([4]; HPLC, reversed-phase C18, acetonitrile (0.1% formic acid)/water (0.09% formic acid) gradient) | efficacy in % ([6]; application rate 500 g/ha) | efficacy (dead or moribund fleas) ([8]; application rate 1 μg/cm^2) | efficacy (dead or moribund fleas) ([8]; application rate 5 μg/cm^2)
Cn1nc(C(F)(F)C(F)(F)F)c(C(F)(F)F)c1-n1cc(-c2cccc(C(=O)NCc3ccccc3)c2)cn1 [Ic-17] | 100% | 90% | 100% | 4.31 | 100% | 100% | 100% |  |  |  |  |  | 
O=C(NC1CC1)c1cc(-c2cnn(-c3c(C(F)(F)F)c(C(F)(F)C(F)(F)F)nn3-c3ccc([N+](=O)[O-])cc3)c2)ccc1Cl [Ic-8] | 100% | 100% |  | 4.54 |  |  | 100% |  |  |  |  |  | 
Cn1nc(C(F)(F)C(F)(F)F)c(C(F)(F)F)c1-n1cc(-c2cccc(C(=O)NCc3cccs3)c2)cn1 [Ic-20] | 100% | 100% | 100% | 4.20 | 100% | 100% | 100% |  |  |  |  |  | 
Cn1nc(C(F)(F)C(F)(F)F)c(C(F)(F)F)c1-n1cc(-c2ccc(Cl)c(C(=O)Nc3ccncc3)c2)cn1 [Ic-22] | 100% | 100% | 100% | 2.38 | 100% | 100% | 100% |  |  |  |  |  | 
Cn1nc(C(F)(F)C(F)(F)F)c(C(F)(F)F)c1-n1cc(-c2cc(C(=O)NC3(C#N)CC3)ccc2F)cn1 [Ic-42] | 100% | 100% |  |  |  |  | 100% | 100% | 83% |  |  |  | 
Cn1nc(C(F)(F)C(F)(F)F)c(C(F)(F)F)c1-n1cc(-c2cc(OC(F)(F)F)cc(C(=O)NC3(C#N)CC3)c2)cn1 [Ic-75] | 100% | 100% |  |  |  |  | 100% | 100% | 100% |  |  |  | 
Cn1nc(C(F)(F)C(F)(F)F)c(C(F)(F)F)c1-n1cc(-c2ccc(Cl)c(C(=O)NC3CC3)c2)c(C(F)(F)F)n1 [Ic-4] | 100% | 100% |  | 4.51 |  |  | 100% |  |  |  |  |  | 
Cc1cc(C(=O)NC2(C#N)CC2)cc(-c2cnn(-c3c(C(F)(F)F)c(C(F)(F)C(F)(F)F)nn3C)c2)c1 [Ic-56] | 100% | 100% |  |  |  | 90% | 100% | 100% |  |  |  |  | 
Cn1nc(C(F)(F)C(F)(F)F)c(C(F)(F)F)c1-n1ccc(-c2ccc(Cl)c(C(=O)NC3CC3)c2)n1 [Id-2] | 100% | 100% | 100% |  | 100% |  | 95% |  |  | 3.97 |  |  | 
Cc1c(-c2ccc(Cl)c(C(=O)NC3CC3)c2)cnn1-c1c(C(F)(F)F)c(C(F)(F)C(F)(F)F)nn1C [Ic-13] | 100% | 100% | 100% | 3.88 | 100% | 90% | 100% |  |  |  |  |  | 
CON=Cc1c(C(F)(F)F)nn(C)c1-n1cc(-c2ccc(Cl)c(C(=O)NC3(C#N)CC3)c2)cn1 (mixture of isomers) [Ic-99] | 100% | 100% | 100% | 3.09 |  | 100% | 80% |  |  |  |  |  | 
Cn1nc(C(F)(F)C(F)(F)F)c(C(F)(F)F)c1-n1cc(-c2ccc(Cl)c(C(=O)Nc3cc[nH]n3)c2)cn1 [Ic-150] | 100% | 100% |  |  |  |  | 100% | 100% | 100% |  | 100% |  | 
CC(C)C(C)NC(=O)c1cc(-c2cnn(-c3c(C(F)(F)F)c(C(F)(F)C(F)(F)F)nn3C)c2)ccc1Cl (stereo not shown) [Ic-137] | 100% | 100% |  |  |  |  | 100% | 83% |  |  | 100% |  | 
Cn1nc(C(F)(F)F)c(C#N)c1-n1cc(-c2ccc(Cl)c(C(=O)NC3(C#N)CC3)c2)cn1 [Ic-53] | 100% | 100% | 100% | 2.92 |  |  | 100% |  |  |  |  |  | 
COc1cc(C(=O)NC2(C#N)CC2)cc(-c2cnn(-c3c(C(F)(F)F)c(C(F)(F)C(F)(F)F)nn3C)c2)c1 [Ic-63] | 100% | 95% |  |  |  | 100% | 100% | 100% |  |  |  |  | 
Cn1nc(C(F)(F)C(F)(F)F)c(C(F)(F)F)c1-n1cc(-c2ccc(Cl)c(C(=O)NCc3cc[nH]n3)c2)cn1 [Ic-157] | 100% | 90% |  |  |  |  | 100% | 100% | 100% |  | 100% |  | 
Cn1nc(C(F)(F)C(F)(F)F)c(C(F)(F)F)c1-n1cc(-c2ccc(Cl)c(C(=O)Nc3cccnc3)c2)cn1 [Ic-149] | 100% | 100% |  |  |  |  | 100% | 100% | 100% |  | 100% | 80% | 100%
Cn1nc(C(F)(F)C(F)(F)F)c(C(F)(F)F)c1-n1cc(-c2cccc(C(N)=O)c2)cn1 [Ic-35] | 80% | 100% | 100% | 3.1 |  |  | 100% |  |  |  |  |  | 
Cn1nc(C(F)(F)C(F)(F)F)c(C(F)(F)F)c1-n1cc(-c2cc(Cl)nc(C(=O)NC3(C#N)CC3)c2)cn1 [Ic-89] | 100% | 90% |  |  |  |  | 100% | 100% | 83% |  |  |  | 
COCC(C)NC(=O)c1cc(-c2cnn(-c3c(C(F)(F)F)c(C(F)(F)C(F)(F)F)nn3C)c2)ccc1Cl (stereo not shown) [Ic-165] | 100% | 100% |  |  |  |  | 100% | 100% | 100% |  | 100% | 100% | 100%
Cn1nc(C(F)(F)C(F)(F)F)c(C(F)(F)F)c1-n1cc(-c2cc(OC(F)(F)F)cc(C(=O)NC3CC3)c2)cn1 [Ic-74] | 100% | 100% |  |  |  |  | 100% | 100% | 100% |  |  |  | 
